Measurements as given in patent publication US6737409B2, “Dolastatin 10 derivatives” (Hoffmann-La Roche Inc., priority 2001, dated 2004).
Where two headings read alike, the source gives them in different places.

Key:
HCT 116 = assay: Antiproliferative activity assay (WST-8); assay type: cell-based; conditions: Homo sapiens, HCT-116, 96 h
Experimental: Antiproliferative activity assay was carried out as follows. A single suspension of tumor cells was inoculated to the serially diluted 96-well microtestplate. Then the testplate was incubated in the 5% CO2 ambience at 37° C. for 4 days (2-3×10^3 cells/well). The degree of cell growth in a monolayer was measured by using WST-8 (Dojindo, Japan). IC50 values of drugs against tumor cells were calculated as the concentration of drug yielding 50% OD of the control growth.

[1] = Maximum tolerated dose (MTD) by i.v. administration in mice; conditions: mouse, in vivo, iv, read-out: maximum tolerated doses (MTD)
Experimental: The maximum tolerated doses (MTD) of the following representative compounds
of the present invention were examined by i.v. administration in mice. The respective MTD values of the compounds were 14, 18, 10, 8, 8, 2 and 2 mg/kg.

[2] = incubated 4 days, WST-8, concentration of drug yielding 50% OD of the control growth, read-out: HCT 116 IC50

**Q.** What does the source list for `CCC(C)C(C(CC(=O)N1CCCC1C(SC)C(C)C(=O)NCCc1cccc(O)c1)OC)N(C)C(=O)C(NC(=O)C(C(C)C)N(C)C)C(C)C` (single isomer, unassigned) [N-(1-{[1-sec-Butyl-4-(2-{2-[2-(3-hydroxy-phenyl)-ethylcarbamoyl]-1-methylsulfanyl-propyl}-pyrrolidin-1-yl)-2-methoxy-4-oxo-butyl]-methyl-carbamoyl}-2-methyl-propyl)-2-dimethylamino-3-methyl-butyramide]?
**A.** IC50 (HCT 116; read-out: HCT 116 IC50 (nM)): 0.19 nM; MTD [1]: 2 mg/kg

**Q.** Which IC50 (HCT 116; [2]) does the source give for `CCC(C)C(C(CC(=O)N1CCCC1C(CC(=O)NCCc1ccccc1)S(C)(=O)=O)OC)N(C)C(=O)C(NC(=O)C(NC)C(C)C)C(C)C` (centres unmarked) [N-[1-({1-sec-Butyl-4-[2-(1-methanesulfonyl-2-phenethylcarbamoyl-ethyl)-pyrrolidin-1-yl]-2-methoxy-4-oxo-butyl}-methyl-carbamoyl)-2-methyl-propyl]-3-methyl-2-methylamino-butyramide] here?
**A.** Its IC50 is 0.77 nM.

**Q.** And the MTD [1]?
**A.** The MTD was 18 mg/kg.

**Q.** What does the source list for `CCC(C)C(C(CC(=O)N1CCCC1C(CC(=O)NCCc1ccccc1)SC(C)C)OC)N(C)C(=O)C(NC(=O)C(NC)C(C)C)C(C)C` (centres unmarked) [N-[1-({1-sec-Butyl-4-[2-(1-isopropylsulfanyl-2-phenethylcarbamoyl-ethyl)-pyrrolidin-1-yl]-2-methoxy-4-oxo-butyl}-methyl-carbamoyl)-2-methyl-propyl]-3-methyl-2-methylamino-butyramide]?
**A.** IC50 (HCT 116; [2]): 0.65 nM; MTD [1]: 10 mg/kg

**Q.** Which results are given for `CCC(C)C(C(CC(=O)N1CCCC1C(SC)C(C)C(=O)N(C)CCc1cccc(O)c1)OC)N(C)C(=O)C(NC(=O)C(C(C)C)N(C)C)C(C)C` (single isomer, unassigned) [N-[1-({1-sec-Butyl-4-[2-(2-{[2-(3-hydroxy-phenyl)-ethyl]-methyl-carbamoyl}-1-methylsulfanyl-propyl)-pyrrolidin-1-yl]-2-methoxy-4-oxo-butyl}-methyl-carbamoyl)-2-methyl-propyl]-2-dimethylamino-3-methyl-butyramide]?
**A.** IC50 (HCT 116; [2]): 0.66 nM; MTD [1]: 8 mg/kg

**Q.** For `CCSC(C(C)C(=O)NCCc1cccc(O)c1)C1CCCN1C(=O)CC(OC)C(C(C)CC)N(C)C(=O)C(NC(=O)C(C(C)C)N(C)C)C(C)C` (single isomer, unassigned) [N-(1-{[1-sec-Butyl-4-(2-{1-ethylsulfanyl-2-[2-(3-hydroxy-phenyl)-ethylcarbamoyl]-propyl}-pyrrolidin-1-yl)-2-methoxy-4-oxo-butyl]-methyl-carbamoyl}-2-methyl-propyl)-2-dimethylamino-3-methyl-butyramide], which IC50 (HCT 116; read-out: HCT 116 IC50 (nM)) is on record?
**A.** The IC50 was 0.84 nM.

**Q.** And the MTD [1]?
**A.** Its MTD is 2 mg/kg.

**Q.** For `CCC(C)C(C(CC(=O)N1CCCC1C(CC(=O)N(C)CCc1ccccc1)SC)OC)N(C)C(=O)C(NC(=O)C(C(C)C)N(C)C)C(C)C` (centres unmarked) [N-{1-[(1-sec-Butyl-2-methoxy-4-{2-[2-(methyl-phenethyl-carbamoyl)-1-methylsulfanyl-ethyl]-pyrrolidin-1-yl}-4-oxo-butyl)-methyl-carbamoyl]-2-methyl-propyl}-2-dimethylamino-3-methyl-butyramide], which IC50 (HCT 116; [2]) is on record?
**A.** Its IC50 is 0.87 nM.

**Q.** With `CCC(C)C(C(CC(=O)N1CCCC1C(CC(=O)NCCc1ccccc1O)SC)OC)N(C)C(=O)C(NC(=O)C(C(C)C)N(C)C)C(C)C` (centres unmarked) [N-(1-{[1-sec-Butyl-4-(2-{2-[2-(2-hydroxy-phenyl)-ethylcarbamoyl]-1-methylsulfanyl-ethyl}-pyrrolidin-1-yl)-2-methoxy-4-oxo-butyl]-methyl-carbamoyl}-2-methyl-propyl)-2-dimethylamino-3-methyl-butyramide] as the molecule, how does the IC50 (HCT 116; [2]) read?
**A.** The IC50 was 0.64 nM.

**Q.** For `CCC(C)C(C(CC(=O)N1CCCC1C(CC(=O)NCCc1cccnc1)SC)OC)N(C)C(=O)C(NC(=O)C(C(C)C)N(C)C)C(C)C` (centres unmarked) [N-{1-[(1-sec-Butyl-2-methoxy-4-{2-[1-methylsulfanyl-2-(2-pyridin-3-yl-ethylcarbamoyl)-ethyl]-pyrrolidin-1-yl}-4-oxo-butyl)-methyl-carbamoyl]-2-methyl-propyl}-2-dimethylamino-3-methyl-butyramide], which IC50 (HCT 116; [2]) is on record?
**A.** Its IC50 is 0.91 nM.

**Q.** For `CCC(C)C(C(CC(=O)N1CCCC1[C@@H](CC(=O)NCCc1ccccc1)Sc1ccc(O)cc1)OC)N(C)C(=O)C(NC(=O)C(C(C)C)N(C)C)C(C)C` (stereo partly drawn) [N-{1-[(1-sec-Butyl-4-{2-[1-(R)-(4-hydroxy-phenylsulfanyl)-2-phenethylcarbamoyl-ethyl]-pyrrolidin-1-yl}-2-methoxy-4-oxo-butyl)-methyl-carbamoyl]-2-methyl-propyl}-2-dimethylamino-3-methyl-butyramide], which IC50 (HCT 116; [2]) is on record?
**A.** Its IC50 is 0.6 nM.

**Q.** For `CCNC(=O)Oc1cccc(CCNC(=O)C(C)C(SC)C2CCCN2C(=O)CC(OC)C(C(C)CC)N(C)C(=O)C(NC(=O)C(C(C)C)N(C)C)C(C)C)c1` (centres unmarked) [Ethyl-carbamic acid 3-(2-{3-[1-(4-{[2-(2-dimethylamino-3-methyl-butyrylamino)-3-methyl-butyryl]-methyl-amino}-3-methoxy-5-methyl-heptanoyl)-pyrrolidin-2-yl]-2-methyl-3-methylsulfanyl-propionylamino}-ethyl)-phenyl ester], which IC50 (HCT 116; read-out: HCT 116 IC50 (nM)) is on record?
**A.** The IC50 was 0.57 nM.

**Q.** With `CCC(C)C(C(CC(=O)N1CCCC1C(SC)C(C)C(=O)NCCc1ccccc1)OC)N(C)C(=O)C(NC(=O)C(C(C)C)N(C)C)C(C)C` (centres unmarked) [N-[1-({1-sec-Butyl-2-methoxy-4-[2-(1-methylsulfanyl-2-phenethylcarbamoyl-propyl)-pyrrolidin-1-yl]-4-oxo-butyl}-methyl-carbamoyl)-2-methyl-propyl]-2-dimethylamino-3-methyl-butyramide] as the molecule, how does the IC50 (HCT 116; [2]) read?
**A.** The IC50 was 0.04 nM.

**Q.** For `CCC(C)C(C(CC(=O)N1CCCC1C(CC(=O)NCCc1ccccc1)SC(C)(C)C)OC)N(C)C(=O)C(NC(=O)C(C(C)C)N(C)C)C(C)C` (centres unmarked) [N-[1-({1-sec-Butyl-4-[2-(1-tert-butylsulfanyl-2-phenethylcarbamoyl-ethyl)-pyrrolidin-1-yl]-2-methoxy-4-oxo-butyl}-methyl-carbamoyl)-2-methyl-propyl]-2-dimethylamino-3-methyl-butyramide], which IC50 (HCT 116; [2]) is on record?
**A.** Its IC50 is 0.17 nM.

**Q.** Which IC50 (HCT 116; [2]) does the source give for `CCC(C)C(C(CC(=O)N1CCCC1C(CC(=O)NCCc1cccc(O)c1)SCC(=O)N(C)C)OC)N(C)C(=O)C(NC(=O)C(C(C)C)N(C)C)C(C)C` (centres unmarked) [N-(1-{[1-sec-Butyl-4-(2-{1-dimethylcarbamoylmethylsulfanyl-2-[2-(3-hydroxy-phenyl)-ethylcarbamoyl]-ethyl}-pyrrolidin-1-yl)-2-methoxy-4-oxo-butyl]-methyl-carbamoyl}-2-methyl-propyl)-2-dimethylamino-3-methyl-butyramide] here?
**A.** The IC50 was 1.8 nM.

**Q.** For `CCC(C)C(C(CC(=O)N1CCCC1C(CC(=O)NCCc1cccc(O)c1)SC)OC)N(C)C(=O)C(NC(=O)C(C(C)C)N(C)C)C(C)C` (centres unmarked) [N-(1-{[1-sec-Butyl-4-(2-{2-[2-(3-hydroxy-phenyl)-ethylcarbamoyl]-1-methylsulfanyl-ethyl}-pyrrolidin-1-yl)-2-methoxy-4-oxo-butyl]-methyl-carbamoyl}-2-methyl-propyl)-2-dimethylamino-3-methyl-butyramide], which IC50 (HCT 116; [2]) is on record?
**A.** The IC50 was 0.26 nM.

**Q.** With `CCC(C)C(C(CC(=O)N1CCCC1C(CC(=O)NCCc1cccs1)SC)OC)N(C)C(=O)C(NC(=O)C(C(C)C)N(C)C)C(C)C` (centres unmarked) [N-{1-[(1-sec-Butyl-2-methoxy-4-{2-[1-methylsulfanyl-2-(2-thiophen-2-yl-ethylcarbamoyl)-ethyl]-pyrrolidin-1-yl}-4-oxo-butyl)-methyl-carbamoyl]-2-methyl-propyl}-2-dimethylamino-3-methyl-butyramide] as the molecule, how does the IC50 (HCT 116; [2]) read?
**A.** Its IC50 is 0.5 nM.
